For assay [1], the target named is Aldo-keto reductase family 1 member B1 [K65Q] (Bos taurus, UniProt P16116, K65Q). Nature of the assay: ALR2 in vitro Inhibition Assay. On the procedure:
The activity of ALR2 enzyme was determined at 340 nm in UV spectrophotometer that depends upon the measurement of NADPH consumption. Each well of the 96-well plate contains 200 µL of assay mixture consisting of potassium phosphate buffer 100 mMat 6.2 pH, 20 µL of 10 mM test sample, 70 µL of enzyme preparation and substrate D,L-glyceraldehyde (40 µL), all mixture was incubated at 37 °C for 5 min and then 0.1 mM NADPH (50 µL) was added as a cofactor in the enzyme reaction and read was measured at 340 nm and followed by incubation at 37 °C for 10 min and thenabsorbance was measured in Eliza plate reader at respective wavelength. Negative and positive control used were 10 m M buffer (20 µL) and 10 mM sulindac (20 µL) [Med. Chem. Commun., 5:1371-1380].

The target in assay [2] is Aldo-keto reductase family 1 member A1 (Bos taurus, UniProt Q3ZCJ2). Nature of the assay: ALR1 in vitro Inhibition Assay. To be noted: pH 6.2. On the procedure: The assay results were obtained at 340 nm and ALR1 inhibitory activity was measured with the absorbance change at this respective wavelength. Each well contains 200 µL of assay mixture containing potassium phosphate buffer 100 mM at pH 6.2 with test sample 20 µL of 10 mM, 70 µL enzyme preparation and 40 µL of10 mM sodium D-glucoronic acid as a substrate. This mixture was incubated at 37 °C for 5 min and 50 µL of 0.1 mM NADPH as a cofactor was added and the read was obtained at 340 nm. The assay mixture was incubated again at 37 °C for 10 min and the read was taken at the respective UV range in ELIZA plate reader. As positive and negative control, 10 mM valproic acid (20 µL) and buffer solution (20 µL) were used [Biol. Chem., 240:877-882].
Chain of Aldo-keto reductase family 1 member A1 (Q3ZCJ2 whole entry): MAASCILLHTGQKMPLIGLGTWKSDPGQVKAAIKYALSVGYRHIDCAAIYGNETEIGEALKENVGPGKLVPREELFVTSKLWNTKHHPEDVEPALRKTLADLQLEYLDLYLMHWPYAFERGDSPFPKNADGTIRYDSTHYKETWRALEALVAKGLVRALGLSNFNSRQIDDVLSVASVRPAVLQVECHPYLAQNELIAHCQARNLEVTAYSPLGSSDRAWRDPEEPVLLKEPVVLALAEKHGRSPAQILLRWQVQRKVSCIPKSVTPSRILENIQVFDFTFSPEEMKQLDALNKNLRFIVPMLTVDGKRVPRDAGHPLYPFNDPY

Turning to `CCCCNCn1nc(-c2cc3ccccc3oc2=O)oc1=S` [3-(4-((Butylamino)methyl)-5-thioxo-4,5-dihydro-1,3,4-oxadiazol-2-yl)-2H-chromen-2-one (11b)], the IC50 in assay [1] is 57.5 µM; in assay [2], 3.36 µM.
For `C/C(=N\Nc1nc(-c2cc3ccccc3oc2=O)cs1)c1ccc(Br)cc1` [(E)-3-(2-(2-(1-(4-bromophenyl)ethylidene)hydrazinyl)thiazol-4-yl)-2H-chromen-2-one (6e)] the same measures were 0.11 µM and 1.71 µM.
For `COc1cc(/C(C)=N/Nc2nc(-c3cc4ccccc4oc3=O)cs2)ccc1O` [(E)-3-(2-(2-(1-(4-hydroxy-3-methoxyphenyl)ethylidene)hydrazinyl)thiazol-4-yl)-2H-chromen-2-one (6k)], the concentration for half-maximal inhibition (IC50) in assay [1] turned out to be 1.76 µM; in assay [2], 1.41 µM.
With `C/C(=N\Nc1nc(-c2cc3ccccc3oc2=O)cs1)c1ccccc1` [Coumarin-thiazole series I, 6a], the IC50 in assay [1] was determined as 0.12 µM; in assay [2], 2.94 µM.
Consider `CC1=C(CC(=O)O)c2cc(F)ccc2/C1=C\c1ccc([S@@+](C)[O-])cc1` [cis-5-Fluoro-2-methyl-1-((p-methylsulfinyl)benzylidene)indene-3-acetic acid], for which half-maximal inhibition in assay [1] (IC50) required 0.293 µM. This counts as sub-micromolar.
Regarding `O=c1oc2ccccc2cc1-c1nn(CNc2ccc(Cl)cc2)c(=S)o1` [3-(4-((4-Chlorophenylamino)methyl)-5-thioxo-4,5-dihydro-1,3,4-oxadiazol-2-yl)-2H-chromen-2-one (11f)], the values for the IC50 in assay [1] and in assay [2] were 3.39 µM and 5.68 µM, respectively.
For the compound `COc1ccc(/C(C)=N/Nc2nc(-c3cc4ccccc4oc3=O)cs2)c(O)c1` [(E)-3-(2-(2-(1-(2-hydroxy-4-methoxyphenyl)ethylidene)hydrazinyl)thiazol-4-yl)-2H-chromen-2-one (6j)], the half-inhibitory concentration (IC50) in assay [2] worked out at 5.47 µM.
For `O=c1oc2ccccc2cc1-c1csc(NN=C(c2ccccc2)c2ccccc2)n1` [3-(2-(2-(diphenylmethylene)hydrazinyl)thiazol-4-yl)-2Hchromen-2-one (6n)], the IC50 in assay [2] is 17.1 µM. Compared with the last compound, the IC50 is about 3.1-fold higher.
As to `COc1ccc(/C(C)=N/Nc2nc(-c3cc4ccccc4oc3=O)cs2)cc1I` [(E)-3-(2-(2-(1-(3-iodo-4-methoxyphenyl)ethylidene)hydrazinyl)thiazol-4-yl)-2H-chromen-2-one (6l)], in assay [2], the midpoint of inhibition, the IC50, lay at 14.4 µM.
For `O=c1oc2ccccc2cc1-c1nn(CN(c2ccccc2)c2ccccc2)c(=S)o1` [3-(4-((Diphenylamino)methyl)-5-thioxo-4,5-dihydro-1,3,4-oxadiazol-2-yl)-2H-chromen-2-one (11h)], in assay [1], the IC50 is 3.39 µM.
`C/C(=N\Nc1nc(-c2cc3ccccc3oc2=O)cs1)c1cc2ccccc2oc1=O` [Coumarin-thiazole series I, 6o] yielded an IC50 in assay [2] of 8.91 µM.
The compound `O=c1oc2ccccc2cc1-c1nn(CNc2ccccc2Cl)c(=S)o1` [3-(4-((2-Chlorophenylamino)methyl)-5-thioxo-4,5-dihydro-1,3,4-oxadiazol-2-yl)-2H-chromen-2-one (11d)] returned an IC50 in assay [1] of 0.31 µM. This lies in the sub-micromolar range.
In turn, `COc1ccc(/C(C)=N/Nc2nc(-c3cc4ccccc4oc3=O)cs2)cc1F` [(E)-3-(2-(2-(1-(3-fluoro-4-methoxyphenyl)ethylidene)hydrazinyl)thiazol-4-yl)-2H-chromen-2-one (6i)] returned an IC50 in assay [2] of 1.08 µM.
Take `C/C(=N\Nc1nc(-c2cc3ccccc3oc2=O)cs1)c1ccccc1Br` [(E)-3-(2-(2-(1-(2-bromophenyl)ethylidene)hydrazinyl)thiazol-4-yl)-2H-chromen-2-one (6c)]: the IC50 was found to be 0.16 µM in assay [1] and 34.7 µM in assay [2].
In assay [1], `O=c1oc2ccccc2cc1-c1nn(CN2CCOCC2)c(=S)o1` [3-(4-(Morpholinomethyl)-5-thioxo-4,5-dihydro-1,3,4-oxadiazol-2-yl)-2H-chromen-2-one (11g)] had an IC50 of 0.34 µM.
In assay [2], `O=c1oc2ccccc2cc1-c1nn(CNc2cccc(Cl)c2)c(=S)o1` [3-(4-((3-Chlorophenylamino)methyl)-5-thioxo-4,5-dihydro-1,3,4-oxadiazol-2-yl)-2H-chromen-2-one (11e)] registered an IC50 of 15.2 µM. This counts as double-digit micromolar.
In turn, `Cc1ccc(NCn2nc(-c3cc4ccccc4oc3=O)oc2=S)cc1` [3-(4-((p-Toluidino)methyl)-5-thioxo-4,5-dihydro-1,3,4-oxadiazol-2-yl)-2H-chromen-2-one (11c)] came in with an IC50 in assay [2] of 7.11 µM. Against the preceding compound, the IC50 is about 2.1-fold lower.
On the same count and under the same terms, next, `C/C(=N\Nc1nc(-c2cc3ccccc3oc2=O)cs1)c1ccccc1F` [(E)-3-(2-(2-(1-(2-fluorophenyl)ethylidene)hydrazinyl)thiazol-4-yl)-2H-chromen-2-one (6f)]: 57.4 µM.
Same read-out and setting: next, `COc1ccc(/C(C)=N/Nc2nc(-c3cc4ccccc4oc3=O)cs2)cc1` [(E)-3-(2-(2-(1-(4-methoxyphenyl)ethylidene)hydrazinyl)thiazol-4-yl)-2H-chromen-2-one (6h)]: 7.62 µM.
In the case of `C/C(=N\Nc1nc(-c2cc3ccccc3oc2=O)cs1)c1cccc(Br)c1` [(E)-3-(2-(2-(1-(3-bromophenyl)ethylidene)hydrazinyl)thiazol-4-yl)-2H-chromen-2-one (6d)], the IC50 in assay [1] was 6.35 µM; in assay [2] it was 93.6 µM.

In general, IC50 refers to the concentration that inhibits the measured activity by half. A higher IC50 goes with a need for much substance.

(Values after BindingDB's records for doi:10.1016/j.bioorg.2016.08.005 (Comsats Institute of Information Technology, 2016).)
